Experimental data as given in PubChem BioAssay AID248 (DTP/NCI, 2004).
Several values for one entry are separate records, joined by “and”; a condition that tells them apart may be missing. Equal values may be shown once. Inconclusive results and toxic doses are left out. Rule as the data show it: active = T/C of 150% or more; inactive = T/C below 125%.

System: L1210 leukemia ip in BDF1 mice, survival T/C
Assay: NCI In Vivo Anticancer Drug Screen. Data for tumor model L1210 Leukemia (intraperitoneal) in B6D2F1 (BDF1) mice
Settings: endpoint: mean survival time, higher = longer survival
Procedure, shortened: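 Transplanted-tumor mice were given test agent; controls received vehicle only. Survival readings from the two groups were divided (treated over control).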

[1] = dose: 25.0 mg/kg/injection, schedule: Q01DX009 (ip), vehicle: Klucel (hydroxypropylcellulose) (HPC)
[2] = dose: 50.0 mg/kg/injection, schedule: Q01DX009 (ip), vehicle: Klucel (hydroxypropylcellulose) (HPC)
[3] = dose: 100.0 mg/kg/injection, schedule: Q01DX009 (ip), vehicle: Klucel (hydroxypropylcellulose) (HPC)
[4] = dose: 100.0 mg/kg/injection, schedule: Q04DX003 (ip), vehicle: saline
[5] = dose: 200.0 mg/kg/injection, schedule: Q01DX009 (ip), vehicle: Klucel (hydroxypropylcellulose) (HPC)
[6] = dose: 200.0 mg/kg/injection, schedule: Q04DX003 (ip), vehicle: saline
[7] = dose: 400.0 mg/kg/injection, schedule: Q04DX003 (ip), vehicle: saline
[8] = dose: 100.0 mg/kg/injection, schedule: Q04DX002 (ip), vehicle: saline with Tween-80
[9] = dose: 200.0 mg/kg/injection, schedule: Q04DX002 (ip), vehicle: saline with Tween-80
[10] = dose: 400.0 mg/kg/injection, schedule: Q04DX002 (ip), vehicle: saline with Tween-80
[11] = dose: 100.0 mg/kg/injection, schedule: Q04DX002 (ip), vehicle: saline
[12] = dose: 100.0 mg/kg/injection, schedule: Q01DX009 (ip), vehicle: saline with Tween-80
[13] = dose: 200.0 mg/kg/injection, schedule: Q01DX009 (ip), vehicle: saline with Tween-80
[14] = dose: 100.0 mg/kg/injection, schedule: Q04DX003 (ip), vehicle: Klucel (hydroxypropylcellulose) (HPC)
[15] = dose: 200.0 mg/kg/injection, schedule: Q04DX003 (ip), vehicle: Klucel (hydroxypropylcellulose) (HPC)
[16] = dose: 400.0 mg/kg/injection, schedule: Q01DX009 (ip), vehicle: Klucel (hydroxypropylcellulose) (HPC)
[17] = dose: 400.0 mg/kg/injection, schedule: Q04DX003 (ip), vehicle: Klucel (hydroxypropylcellulose) (HPC)
[18] = dose: 100.0 mg/kg/injection, schedule: Q04DX002 (ip), vehicle: Klucel (hydroxypropylcellulose) (HPC)
[19] = dose: 200.0 mg/kg/injection, schedule: Q04DX002 (ip), vehicle: Klucel (hydroxypropylcellulose) (HPC)
[20] = dose: 400.0 mg/kg/injection, schedule: Q04DX002 (ip), vehicle: Klucel (hydroxypropylcellulose) (HPC)

Measured: T/C

CC1=CCC(C(C)C)C=C1 (stereo unspecified)
inactive: [1] 101 % of control | [2] 96 % of control | [3] 102 % of control | dose: 100.0 mg/kg/injection, schedule: Q01DX009 (ip), vehicle: saline 93 % of control | [4] 96 % of control | [5] 96 % of control | [6] 98 % of control | [7] 97 % of control

CCc1nc2nnnn2c(CC)c1-c1ccccc1O
inactive: [8] 98 % of control | [9] 104 % of control | [10] 88 % of control

Cc1c2ccncc2c(C)c2c1oc1ccccc12
inactive: dose: 200.0 mg/kg/injection, schedule: Q01DX009 (ip), vehicle: other 91 % of control | dose: 400.0 mg/kg/injection, schedule: Q01DX009 (ip), vehicle: other 95 % of control

C#CC(OC(=O)NC(C(=O)OC)C(C)C)(c1ccccc1)c1ccccc1 (stereo unspecified)
inactive: dose: 50.0 mg/kg/injection, schedule: Q04DX002 (ip), vehicle: saline with Tween-80 100 % of control | [8] 105 % of control and 114 % of control | [9] 122 % of control

CC(=O)N=c1ccccn1O
inactive: [11] 96 % of control | dose: 200.0 mg/kg/injection, schedule: Q04DX002 (ip), vehicle: saline 105 % of control

O=C(CCl)N=c1cc(-c2ccc(Cl)cc2)ss1
inactive: dose: 50.0 mg/kg/injection, schedule: Q04DX002 (ip), vehicle: saline 98 % of control | [11] 98 % of control

CCC(O)C[As](=O)(O)c1ccc(Cl)cc1 (stereo unspecified)
inactive: dose: 1.56 mg/kg/injection, schedule: Q01DX009 (ip), vehicle: saline with Tween-80 97 % of control

O=NN1CCC1
inactive: dose: 100.0 mg/kg/injection, schedule: Q01DX001 (ip), vehicle: saline 97 % of control | dose: 200.0 mg/kg/injection, schedule: Q01DX001 (ip), vehicle: saline 93 % of control | dose: 400.0 mg/kg/injection, schedule: Q01DX001 (ip), vehicle: saline 93 % of control

CCc1cccc(CC)c1NC(=O)NS(=O)(=O)c1ccccc1
inactive: [12] 91 % of control | [13] 88 % of control

CCC(C)(C)ON=O
inactive: [8] 107 % of control | [9] 100 % of control | [10] 96 % of control

NC(=O)Nc1cccc2ccccc12
inactive: [3] 97 % of control | [14] 92 % of control | [5] 97 % of control | [15] 94 % of control | [16] 103 % of control | [17] 100 % of control

Nc1cc(N)ncn1
inactive: [1] 101 % of control | [2] 98 % of control | [3] 102 % of control

CN(C(=O)c1c(Cl)[nH]c2ccccc12)c1ccccc1
inactive: dose: 25.0 mg/kg/injection, schedule: Q04DX003 (ip), vehicle: Klucel (hydroxypropylcellulose) (HPC) 96 % of control | dose: 50.0 mg/kg/injection, schedule: Q04DX003 (ip), vehicle: Klucel (hydroxypropylcellulose) (HPC) 95 % of control | [14] 90 % of control

N#C/C(=C\c1ccc(Cl)cc1)c1ccccc1
inactive: dose: 100.0 mg/kg/injection, schedule: Q04DX003 (ip), vehicle: gum acacia 100 % of control | dose: 200.0 mg/kg/injection, schedule: Q04DX003 (ip), vehicle: gum acacia 102 % of control | dose: 400.0 mg/kg/injection, schedule: Q04DX003 (ip), vehicle: gum acacia 109 % of control

C/C(=N\N=C(N)N)c1cccc(NC(=S)Nc2cccc(/C(C)=N/N=C(N)N)c2)c1
inactive: dose: 20.0 mg/kg/injection, schedule: Q01DX005 (ip), vehicle: saline with Tween-80 108 % of control

Oc1ccccc1/C=N/Nc1nnc(N/N=C/c2ccccc2O)c2ccccc12
inactive: dose: 50.0 mg/kg/injection, schedule: Q01DX001 (ip), vehicle: carboxymethylcellulose (CMC) 109 % of control | dose: 100.0 mg/kg/injection, schedule: Q01DX001 (ip), vehicle: carboxymethylcellulose (CMC) 96 % of control | dose: 200.0 mg/kg/injection, schedule: Q01DX001 (ip), vehicle: carboxymethylcellulose (CMC) 97 % of control | dose: 400.0 mg/kg/injection, schedule: Q01DX001 (ip), vehicle: carboxymethylcellulose (CMC) 90 % of control

CC12CC/C(=N/NC(=O)Cc3c[nH]c4ccccc34)CC1CCC1C2CCC2(C)C(OC(=O)c3ccccc3)CCC12 (stereo unspecified)
inactive: dose: 100.0 mg/kg/injection, schedule: Q01DX001 (sc), vehicle: steriod suspending solution 101 % of control | dose: 100.0 mg/kg/injection, schedule: Q01DX009 (sc), vehicle: steriod suspending solution 104 % of control | dose: 200.0 mg/kg/injection, schedule: Q01DX001 (sc), vehicle: steriod suspending solution 100 % of control | dose: 200.0 mg/kg/injection, schedule: Q01DX009 (sc), vehicle: steriod suspending solution 104 % of control | dose: 400.0 mg/kg/injection, schedule: Q01DX001 (sc), vehicle: steriod suspending solution 111 % of control | dose: 400.0 mg/kg/injection, schedule: Q01DX009 (sc), vehicle: steriod suspending solution 102 % of control

CC(=O)CCC1(c2cc[n+](C)cc2)CCC(C)(O)C(C(C)=O)C1 (stereo unspecified)
inactive: [4] 93 % of control | [6] 94 % of control | [7] 100 % of control

COc1cc(Cl)ccc1NC(=S)Nc1ccccc1
inactive: [18] 97 % of control | [19] 101 % of control | [20] 97 % of control

OCc1cc2ccccc2[nH]1
inactive: [12] 100 % of control | dose: 100.0 mg/kg/injection, schedule: Q04DX003 (ip), vehicle: saline with Tween-80 100 % of control | [13] 100 % of control | dose: 200.0 mg/kg/injection, schedule: Q04DX003 (ip), vehicle: saline with Tween-80 96 % of control | dose: 400.0 mg/kg/injection, schedule: Q01DX009 (ip), vehicle: saline with Tween-80 101 % of control | dose: 400.0 mg/kg/injection, schedule: Q04DX003 (ip), vehicle: saline with Tween-80 100 % of control

CCCCOC(=O)c1ccc(NC(=O)Nc2ccc(SC)cc2)cc1
inactive: [3] 95 % of control | [5] 95 % of control | [16] 95 % of control

CC(=O)Oc1c(C)cccc1C(=O)O
inactive: [14] 92 % of control | [15] 103 % of control | [17] 88 % of control

O=C(c1ccc2ccccc2c1)c1cccc(F)c1C(=O)O (tested in a mixture with another compound)
inactive: dose: 75.0 mg/kg/injection, schedule: Q01DX001 (ip), vehicle: carboxymethylcellulose (CMC) 95 % of control | dose: 150.0 mg/kg/injection, schedule: Q01DX001 (ip), vehicle: carboxymethylcellulose (CMC) 90 % of control

Cc1c(Cl)cccc1NC(=O)Nc1ccccc1F
inactive: [3] 91 % of control | [18] 97 % of control | [5] 106 % of control | [19] 97 % of control | [16] 96 % of control | [20] 94 % of control
